As a reminder, the EC50 is the concentration needed to bring the measured effect to its halfway point. Low values mean a more potent agent, high ones a less potent agent. For orientation: IC50 means the point on the concentration scale where inhibition reaches its midpoint.

Each structure is given as a SMILES string. Where two headings read alike, the source gives them in different places.

The source of these data is PMC8536978 (Viruses, 2021).

One series has as its system PBMCs. Briefly: Trypan blue exclusion viability of HIV-1 IIIB infected PBMCs. Type of series: cell-based.
For series [1], the system named is HIV-1 IIIB. Briefly: HIV-1 IIIB replication in PBMCs (p24 ELISA, gag and nef mRNA RT-PCR). Type of series: cell-based. The conditions noted are these: for reduction in gag mRNA / reduction in p24 / reduction in HIV-1 nef mRNA: PBMCs infected with HIV-1 IIIB; for reduction in gag mRNA / reduction in HIV-1 nef mRNA: real-time RT-PCR; for reduction in p24: p24 ELISA.

In series [2] the test system is HIV-1 reverse transcription. Briefly: HIV-1 reverse transcription, early and late LTR DNA products by real-time PCR. Type of series: cell-based. As to conditions: HIV-1 DNA 6 h post infection. (In general: Quantitative PCR measures a nucleic acid by following its amplification.)
In another series the target is Tat–CDK9 interaction (UniProt P04608+P50750). Description: Co-immunoprecipitation of CDK9 with Flag-Tat from 293T cells. Type of series: cell-based. As to conditions: 20 μM, 24 h.
In series [3] the test system is HIV-1 IIIB. Description: HIV-1 IIIB replication in CEM T cells (p24 ELISA, gag mRNA RT-PCR). As to conditions: CEM T cells infected with HIV-1 IIIB; for reduction in p24 levels: p24 ELISA; for reduction of HIV-1 gag mRNA: real-time RT-PCR. Type of series: cell-based. In general terms: An ELISA detects its analyte on a solid surface through an enzyme-linked reagent.
Series [4] concerns the target Tat–cyclin T1 interaction (UniProt O60563+P04608). Briefly: Co-immunoprecipitation of cyclin T1 with Flag-Tat from 293T cells. Type of series: cell-based. As to conditions: 24 h; for reduction of cyclin T1 associated with Tat: 20 μM.
Series [5] can be described thus: MTT cell proliferation/viability assay. Type of series: cell-based. The conditions noted are these: human, CEM T cells, 1-100 μM.
A further series concerns HIV-1 LTR + Tat. Type of series: cell-based. As to conditions: Human immunodeficiency virus 1, HEK-293T, 24 h, read-out: HIV-1 LTR + Tat (Tat-induced transcription) IC50.
Another series relates to Tat–TAR RNA interaction. Description: Tat–TAR RNA interaction pull-down assay. Type of series: binding, HIV-1. The conditions noted are these: 10 µM compound, Flag-Tat lysate, biotinylated TAR RNA on beads.
For the next series, the system named is luciferase translation. Description: In vitro translation of luciferase RNA in rabbit reticulocyte lysate. Type of series: biochemical. The conditions noted are these: 30 μM, 90 min.
Series [6] relates to HIV-1-LUC-G (VSVG pseudotyped HIV-1 expressing luciferase). Briefly: microbe, parasite or virus in culture. Type of series: cell-based. The conditions noted are these: for IC50: read-out: One round HIV-1 infection IC50.
Another series deals with HIV-1 LTR. Description: Basal HIV-1 transcription, HIV-1 LTR-luciferase reporter in 293T cells. Type of series: cell-based. As to conditions: HIV-1 LTR-luciferase reporter alone, 24 h treatment.
A further series concerns TAR RNA. On the set-up: method as in earlier work. The conditions noted are these: cited from earlier work.
Setting [7] is: Human immunodeficiency virus 1, T-cell.

Chain of Tat–cyclin T1 interaction (P04608 whole entry): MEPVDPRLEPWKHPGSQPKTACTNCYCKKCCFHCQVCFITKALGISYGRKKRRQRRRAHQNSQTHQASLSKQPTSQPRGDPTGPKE
Chain of Tat–cyclin T1 interaction (O60563 whole entry): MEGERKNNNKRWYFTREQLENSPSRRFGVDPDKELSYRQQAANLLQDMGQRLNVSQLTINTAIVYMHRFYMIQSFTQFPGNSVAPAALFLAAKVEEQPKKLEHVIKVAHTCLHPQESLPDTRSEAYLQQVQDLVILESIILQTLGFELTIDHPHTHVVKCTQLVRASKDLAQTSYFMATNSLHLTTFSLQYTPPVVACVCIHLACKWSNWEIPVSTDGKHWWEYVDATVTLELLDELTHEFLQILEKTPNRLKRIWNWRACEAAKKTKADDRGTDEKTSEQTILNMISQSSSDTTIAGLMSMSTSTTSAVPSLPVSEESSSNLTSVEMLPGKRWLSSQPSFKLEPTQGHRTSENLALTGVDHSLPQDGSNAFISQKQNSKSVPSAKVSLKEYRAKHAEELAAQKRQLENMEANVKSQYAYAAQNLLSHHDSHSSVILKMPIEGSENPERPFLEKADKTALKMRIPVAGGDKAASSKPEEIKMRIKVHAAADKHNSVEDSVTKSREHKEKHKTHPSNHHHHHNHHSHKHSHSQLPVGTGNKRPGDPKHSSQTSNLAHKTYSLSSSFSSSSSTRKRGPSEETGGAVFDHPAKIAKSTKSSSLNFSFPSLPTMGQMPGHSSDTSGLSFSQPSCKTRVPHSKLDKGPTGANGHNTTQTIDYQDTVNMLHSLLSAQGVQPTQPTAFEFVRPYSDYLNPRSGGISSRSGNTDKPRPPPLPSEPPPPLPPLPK
Chain of Tat–CDK9 interaction (P04608 whole entry): as the sequence (P04608 whole entry) above
Chain of Tat–CDK9 interaction (P50750 whole entry): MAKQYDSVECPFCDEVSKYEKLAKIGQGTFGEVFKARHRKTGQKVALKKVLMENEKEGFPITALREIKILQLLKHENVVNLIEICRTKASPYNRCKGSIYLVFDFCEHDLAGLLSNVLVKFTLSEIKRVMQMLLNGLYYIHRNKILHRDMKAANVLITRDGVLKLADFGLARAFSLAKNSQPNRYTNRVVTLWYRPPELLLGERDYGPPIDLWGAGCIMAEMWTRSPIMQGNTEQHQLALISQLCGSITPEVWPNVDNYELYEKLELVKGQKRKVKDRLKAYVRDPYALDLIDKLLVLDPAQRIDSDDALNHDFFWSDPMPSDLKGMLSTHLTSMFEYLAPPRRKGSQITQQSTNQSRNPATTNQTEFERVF

Consider `Cc1cn([C@H]2C[C@H](N=[N+]=[N-])[C@@H](CO)O2)c(=O)[nH]c1=O` [AZT, azidothymidine], for which the “reduction of PBMCs viability” value with PBMCs (human, 48 h) came to 29%. For the same compound, the “reduction in gag mRNA” value with HIV-1 IIIB [1] was “strongly inhibited HIV-1”. Moreover, in series [2], the “reduction of HIV-1 early LTR products” value stood at 1.8 fold and the “reduction of HIV-1 late LTR products” value is reported as 63 fold.
Consider `Nc1ccc2oc(-c3cc(F)c(F)cc3Cl)nc2c1` [T0516-4834], for which the “reduction in CDK9 associated with Tat” value at Tat–CDK9 interaction is on record as 1.4 fold. For the same compound, in the series on HIV-1 IIIB [1] (HIV-1 IIIB infected PBMCs, 10 µM), the HIV-1 inhibition is listed as ~ 10 fold. Besides, in the series with HIV-1 IIIB [1], the “reduction in p24” value came to 4 fold, the “reduction in HIV-1 nef mRNA” value worked out at 10 fold and the “reduction in gag mRNA” value is recorded as 2.5 fold. Moreover, in the series on HIV-1 IIIB [3], the “reduction in p24 levels” value was 4 fold and the “reduction of HIV-1 gag mRNA” value stood at 27 fold. The inhibition at 20 µM in series [4] (HEK-293T, read-out: reduction of cyclin T1 associated with Tat) was below 20%. This compound showed an EC50 at 24 h in series [5] above 100 µM. Further, the half-inhibitory concentration (IC50) with HIV-1 LTR + Tat was 2 µM. For the same compound, the “inhibition of Tat binding to TAR RNA” value in the series on Tat–TAR RNA interaction was determined as 2.5 fold. The “reduction in luciferase translation” value with luciferase translation is listed as ~ 30%. Moreover, in series [6], the “Luciferase (%, relative to DMSO control)” value is on record as 37.74% and the IC50 was found to be 0.3 µM. The concentration for half-maximal inhibition (IC50) in series [6] (setting [7]) was found to be 0.2 µM.
`O=C1OCCC1Sc1nnc(-c2sc3ccccc3c2Cl)o1` (centres unmarked) [T5628834]: the “reduction in CDK9 associated with Tat” value at Tat–CDK9 interaction is on record as 4 fold. In addition, in the series with HIV-1 IIIB [1], the “reduction in p24” value is on record as 3.2 fold and the “reduction in HIV-1 nef mRNA” value is given as “no effect”. Besides, in the series with HIV-1 IIIB [3], the “reduction in p24 levels” value stood at 1.26 fold and the “reduction of HIV-1 gag mRNA” value was 1.6 fold. Further, the “reduction of cyclin T1 associated with Tat” value in series [4] is on record as 1.6 fold. Moreover, in series [5], the EC50 at 24 h was above 100 µM. Also, the IC50 in the series with HIV-1 LTR + Tat amounted to 20 µM. Besides, in series [6], the “Luciferase (%, relative to DMSO control)” value is on record as 28.71% and the IC50 stood at 3.7 µM. Further, the IC50 in series [6] (setting [7]) was determined as 3.46 µM.
With `O=C(O)COc1ccc(/C=C/C(=O)c2ccc3c(c2)OCO3)cc1` [T6780107], the “reduction in CDK9 associated with Tat” value on Tat–CDK9 interaction is recorded as “no effect”. For the same compound, in the series with HIV-1 IIIB [1], the “reduction in p24” value is reported as “No significant effect”, the “reduction in HIV-1 nef mRNA” value is recorded as “no effect” and the “reduction in gag mRNA” value was “No significant effect”. In the series with HIV-1 IIIB [3], the “reduction in p24 levels” value worked out at 2.2 fold and the “reduction of HIV-1 gag mRNA” value came out at 5.5 fold. In addition, in [4], the “reduction of cyclin T1 associated with Tat” value was “no significant effect”. The compound also yielded a concentration for a half-maximal effect (EC50) at 24 h in series [5] above 100 µM. Moreover, the IC50 in the series on HIV-1 LTR + Tat was 3.5 µM. The IC50 in the series on HIV-1 LTR was 4.63 µM. Also, in series [6], the “Luciferase (%, relative to DMSO control)” value is recorded as 18.24% and the IC50 is 3.7 µM. The IC50 in series [6] (setting [7]) was 2.97 µM.
For `CC(=O)c1ccc2c(c1)N(CCCN(C)C)c1ccccc1S2` [acetylpromazine], the “affinity of binding to TAR RNA” value in the series with TAR RNA is given as “high affinity (nanomolar)”.
With `C[C@@H]1C[C@@H]([C@H](O)CC2CC(=O)NC(=O)C2)C(=O)[C@@H](C)C1` [cycloheximide, reference compound], the “reduction in luciferase translation” value in the series with luciferase translation is on record as “completely blocked translation”.
On to `Cc1nnc(C(=O)NC(C)(C)c2nc(C(=O)NCc3ccc(F)cc3)c(O)c(=O)n2C)o1` [raltegravir, reference compound], for which the “reduction of PBMCs viability” value in the series with PBMCs (HIV-1 IIIB infected PBMCs, trypan blue exclusion) turned out to be 18%. Further, in the series with HIV-1 IIIB [1], the “reduction in gag mRNA” value is reported as “strongly inhibited HIV-1”.
